Common to all, as to assay type: binding
For experiment [1], the target named is BCL6 (Homo sapiens, UniProt P41182, E41A). Description: competitive TR-FRET, displacement of FITC-BCoR peptide.
For experiment [2], the target named is BCL6 (Homo sapiens, UniProt A5PL18). Description: cryo-EM of the BCL6 filament.
The target in experiment [3] is BCL6 (Homo sapiens, UniProt P41182). In words: competitive TR-FRET, displacement of FITC-BCoR peptide. On the technique in general: Time-resolved FRET reads energy transfer from a long-lived donor to a nearby acceptor.

Each structure is given as a SMILES string.

As a reminder, the EC50 is the midpoint of the concentration-response curve. Regarding `CNC(=O)COc1cc2cc(Nc3nc(N4C[C@H](C)C[C@H](C)C4)ncc3Cl)ccc2n(C)c1=O` [BI-3802], the “competitive TR-FRET, displacement of FITC-BCoR peptide” value in experiment [1] is “the E41A substitution did not impair drug binding to BCL6 (Extended Data Fig. 4f)”. In addition, the concentration giving a half-maximal response (EC50) in experiment [2] was determined as 64 nM.

On to `CNC(=O)COc1cc2cc(Nc3nc(N4CCC(C(=O)N(C)C)CC4)ncc3Cl)cc(OC)c2n(C)c1=O` [BI-3812], for which, in experiment [3], the “competitive TR-FRET, displacement of FITC-BCoR peptide” value is “despite comparable affinity of both BI-3802 and BI-3812 to BCL6 (Extended Data Fig. 8h)”.

Values taken from paper PMC7816212 (Nature, 2020).
